We go through 38 compounds from US11918568B2, “Fused ring compound having urea structure” (DAIICHI SANKYO COMPANY, LIMITED, priority 2018, dated 2024).

Molecules are shown by their SMILES.

Chain of human NAMPT enzyme (P43490 whole entry): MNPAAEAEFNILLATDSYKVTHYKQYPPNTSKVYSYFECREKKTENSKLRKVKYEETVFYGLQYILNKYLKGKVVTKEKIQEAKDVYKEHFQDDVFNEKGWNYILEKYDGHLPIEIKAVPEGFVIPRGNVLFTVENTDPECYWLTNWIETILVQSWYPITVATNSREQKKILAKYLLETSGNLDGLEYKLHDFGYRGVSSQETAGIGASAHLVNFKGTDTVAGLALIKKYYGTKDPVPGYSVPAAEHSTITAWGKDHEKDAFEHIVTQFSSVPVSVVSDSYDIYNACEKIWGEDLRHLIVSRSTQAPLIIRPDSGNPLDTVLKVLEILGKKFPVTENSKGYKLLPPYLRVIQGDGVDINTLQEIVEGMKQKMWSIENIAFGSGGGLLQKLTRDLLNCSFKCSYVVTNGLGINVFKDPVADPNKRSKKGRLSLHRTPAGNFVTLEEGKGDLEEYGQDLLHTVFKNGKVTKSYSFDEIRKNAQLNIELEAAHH

In the test the target is human NAMPT enzyme (Homo sapiens (Human), UniProt P43490). Kind of test: NAMPT enzyme activating effect (in vitro cell-free enzyme assay). The format is biochemical. Conditions: 2 ng/mL human NAMPT enzyme, 1-h incubation at 25° C., fluorescence of NMN derivative. The protocol:
The NAMPT enzyme assay was conducted in accordance with the method of Formentini et al. […] Hereinafter, the procedures will be briefly described. The NAMPT enzyme reaction was carried out using polypropylene 384 well V shaped black plate (Greiner Bio One International GmbH). […] Then, 22 μL of 88% formic acid was added and the mixture was further incubated for 30 min in the dark. The NAMPT enzyme activity was calculated as the difference between fluorescence intensity (Ex 380 nm/Em 450 nm) from the reaction of a test compound treatment group and fluorescence intensity from control reaction free from the NAMPT enzyme. [NAMPT enzyme activity]=[Fluorescence intensity of the test substance treatment group]−[Mean fluorescence intensity of the control reaction free from the NAMPT enzyme] EC50 value of each compound was calculated from the enzyme activities of the compound at various concentrations by using GraphPad Prism software (GraphPad Software) (Table 1)
The term EC50 denotes the concentration needed to bring the measured effect to its halfway point. Higher therefore signals a less potent agent. Compound `CC1(c2nc3ccc(NC(=O)NCc4ccncc4)cc3o2)CC1` [Example 3, N-[2-(1-Methylcyclopropyl)-1,3-benzoxazol-6-yl]-N′-[(pyridin-4-yl)methyl]urea] displayed a 50% effective concentration (EC50) of 150 nM.
Compound `COCCOc1cccc(-c2cc3cc(NC(=O)NCc4ccncc4)ccc3n2C)c1` [Example 37, N-{2-[3-(2-Methoxyethoxy)phenyl]-1-methyl-1H-indol-5-yl}-N′-[(pyridin-4-yl)methyl]urea] showed an EC50 of 160 nM. This EC50 and that of the compound before are within 1.5-fold of each other.
As for `O=C(NCc1ccncc1)Nc1ccc2nc(-c3ccccc3C(F)(F)F)nn2c1` [Example 14, N-[(Pyridin-4-yl)methyl]-N′-{2-[2-(trifluoromethyl)phenyl][1,2,4]triazolo[1,5-a]pyridin-6-yl}urea], the figure is 180 nM; as for `CN(C)C(=O)c1c(-c2ccccc2)nn2cc(NC(=O)NCc3ccncc3)ccc12` [Example 23, N,N-Dimethyl-2-phenyl-6-({[(pyridin-4-yl)methyl]carbamoyl}amino)pyrazolo[1,5-a]pyridine-3-carboxamide], 110 nM; as for `CCN(CC)C(=O)c1coc2cc(NC(=O)NCc3ccncc3)ccc12` [Example 55, N,N-Diethyl-6-({[(pyridin-4-yl)methyl]carbamoyl}amino)-1-benzofuran-3-carboxamide], 490 nM.
As for `COC(=O)Cn1c(-c2ccccc2)cc2cc(NC(=O)NCc3ccncc3)ccc21` [Example 35, Methyl [2-phenyl-5-({[(pyridin-4-yl)methyl]carbamoyl}amino)-1H-indol-1-yl]acetate], the figure is 560 nM; as for `Cn1c(-c2cccc(S(C)(=O)=O)c2)cc2cc(NC(=O)NCc3ccncc3)ccc21` [Example 38, N-{2-[3-(Methanesulfonyl)phenyl]-1-methyl-1H-indol-5-yl}-N′-[(pyridin-4-yl)methyl]urea], 620 nM.
As for `O=C(NCc1ccncc1)Nc1ccc2c(c1)OC(c1ccccc1)C2` (centres unmarked) [Example 51, N-(2-Phenyl-2,3-dihydro-1-benzofuran-6-yl)-N′-[(pyridin-4-yl)methyl]urea], the figure is 120 nM; as for `O=C(NCc1cnco1)Nc1ccc2cn(-c3ccccc3)nc2c1` [Example 43, N-[(1,3-Oxazol-5-yl)methyl]-N′-(2-phenyl-2H-indazol-6-yl)urea], 140 nM; as for `Cn1cc(-c2nc3ccc(NC(=O)NCc4ccncc4)cc3o2)cn1` [Example 4, N-[2-(1-Methyl-1H-pyrazol-4-yl)-1,3-benzoxazol-6-yl]-N′-[(pyridin-4-yl)methyl]urea], 980 nM.
Take `CCC(=O)N1CC(c2ccccc2)COc2cc(NC(=O)NCc3ccncc3)ccc21` (centres unmarked) [Example 19, N-(3-Phenyl-5-propanoyl-2,3,4,5-tetrahydro-1,5-benzoxazepin-8-yl)-N′-[(pyridin-4-yl)methyl]urea]: the 50% effective concentration (EC50) was 380 nM.
Take `CN(C)C(=O)c1c(-c2ccccc2)nn2cc(NC(=O)NCc3ccncc3)cc(F)c12` [Example 20, 4-Fluoro-N,N-dimethyl-2-phenyl-6-({[(pyridin-4-yl)methyl]carbamoyl}amino)pyrazolo[1,5-a]pyridine-3-carboxamide]: a half-maximal effect (EC50) was put at 160 nM.
To `O=C(NCc1ccncc1)Nc1ccc2cn(-c3cccc(OC(F)F)c3)nc2c1` [Example 44, N-{2-[3-(Difluoromethoxy)phenyl]-2H-indazol-6-yl}-N′-[(pyridin-4-yl)methyl]urea] belongs 110 nM.
To `COc1cc(-n2nc3cc(NC(=O)NCc4ccncc4)ccc3c2C#N)ccn1` [Example 33, N-[3-Cyano-2-(2-methoxypyridin-4-yl)-2H-indazol-6-yl]-N′-[(pyridin-4-yl)methyl]urea] belongs 130 nM.
To `CC(C)Cn1ncc2cc(NC(=O)NCc3ccncc3)ccc21` [Example 46, N-[1-(2-Methylpropyl)-1H-indazol-5-yl]-N′-[(pyridin-4-yl)methyl]urea] belongs 790 nM.
Compound `COCCn1c(-c2ccccc2)cc2cc(NC(=O)NCc3ccncc3)ccc21` [Example 36, N-[1-(2-Methoxyethyl)-2-phenyl-1H-indol-5-yl]-N′-[(pyridin-4-yl)methyl]urea] showed a concentration for a half-maximal effect (EC50) of 130 nM.
As for `O=C(NCc1ccncc1)Nc1ccc2c(c1)OCC2c1ccccc1` (centres unmarked) [Example 54, N-(3-Phenyl-2,3-dihydro-1-benzofuran-6-yl)-N′-[(pyridin-4-yl)methyl]urea], the figure is 270 nM; as for `Cn1c(-c2ccccc2)cc2cc(NC(=O)NCc3ccncc3)ccc21` [Example 42, N-(1-Methyl-2-phenyl-1H-indol-5-yl)-N′-[(pyridin-4-yl)methyl]urea], 100 nM; as for `COc1cccc(-c2cc3ccc(NC(=O)NCc4ccncc4)cn3n2)c1` [Example 45, N-[2-(3-Methoxyphenyl)pyrazolo[1,5-a]pyridin-6-yl]-N′-[(pyridin-4-yl)methyl]urea], 60 nM.
To `O=C(NCc1ccncc1)Nc1cc2oc(-c3ccccc3)nc2cc1F` [Example 6, N-(5-Fluoro-2-phenyl-1,3-benzoxazol-6-yl)-N′-[(pyridin-4-yl)methyl]urea] belongs 10 nM; to `COCCOc1ccccc1-n1cc2ccc(NC(=O)NCc3ccncc3)cc2n1` [Example 29, N-{2-[2-(2-Methoxyethoxy)phenyl]-2H-indazol-6-yl}-N′-[(pyridin-4-yl)methyl]urea], 60 nM.
As for `O=C(NCc1cnco1)Nc1ccc2nc(-c3ccccc3)nn2c1` [Example 10, N-[(1,3-Oxazol-5-yl)methyl]-N′-(2-phenyl[1,2,4]triazolo[1,5-a]pyridin-6-yl) urea], the figure is 140 nM.
`CS(=O)(=O)c1cccc(-n2cc3ccc(NC(=O)NCc4ccncc4)cc3n2)c1` [Example 27, N-{2-[3-(Methanesulfonyl)phenyl]-2H-indazol-6-yl}-N′-[(pyridin-4-yl)methyl]urea] had a half-maximal effective concentration (EC50) of 130 nM.
To `Cc1c2ccc(NC(=O)NCc3ccncc3)cc2nn1-c1ccccc1` [Example 28, N-(3-Methyl-2-phenyl-2H-indazol-6-yl)-N′-[(pyridin-4-yl)methyl]urea] belongs 1000 nM.
As for `COc1cccc(-n2cc3ccc(NC(=O)NCc4ccncc4)cc3n2)c1` [Example 30, N-[2-(3-Methoxyphenyl)-2H-indazol-6-yl]-N′-[(pyridin-4-yl)methyl]urea], the figure is 10 nM; as for `O=C(NCc1ccncc1)Nc1cnc2cc(-c3ccccc3)nn2c1` [Example 31, N-(2-Phenylpyrazolo[1,5-a]pyrimidin-6-yl)-N′-[(pyridin-4-yl)methyl]urea], 430 nM; as for `O=C(NCc1ccncc1)Nc1ccc2c(C(=O)N3CCCC3)n(-c3ccccc3)nc2c1` [Example 17, N-[2-Phenyl-3-(pyrrolidine-1-carbonyl)-2H-indazol-6-yl]-N′-[(pyridin-4-yl)methyl]urea], 110 nM.
As for `COc1cccc([C@H]2Oc3cc(NC(=O)NCc4ccncc4)ccc3[C@@H]2C)c1` (relative stereo) [Example 53, N-[(2S*,3S*)-2-(3-Methoxyphenyl)-3-methyl-2,3-dihydro-1-benzofuran-6-yl]-N′-[(pyridin-4-yl)methyl]urea], the figure is 80 nM; as for `O=C(NCc1ccncc1)Nc1ccc2nc(-c3cccn3-c3ccccc3)nn2c1` [Example 12, N-[2-(1-Phenyl-1H-pyrrol-2-yl)[1,2,4]triazolo[1,5-a]pyridin-6-yl]-N′-[(pyridin-4-yl)methyl]urea], 230 nM.
As to `CN(C)C(=O)n1c(-c2ccccc2)cc2cc(NC(=O)NCc3ccncc3)ccc21` [Example 41, N,N-Dimethyl-2-phenyl-5-({[(pyridin-4-yl)methyl]carbamoyl}amino)-1H-indole-1-carboxamide], a half-maximal effect (EC50) was put at 290 nM.
In the case of `COCCN1CC(c2ccccc2)Oc2cc(NC(=O)NCc3ccncc3)ccc21` (centres unmarked) [Example 48, N-[4-(2-Methoxyethyl)-2-phenyl-3,4-dihydro-2H-1,4-benzoxazin-7-yl]-N′-[(pyridin-4-yl)methyl]urea], the concentration giving a half-maximal response (EC50) was 650 nM.
To `O=C(NCc1ccncc1)Nc1ccc2c(C(=O)N3CC4CCC(C3)O4)noc2c1` [Example 57, N-[3-(8-Oxa-3-azabicyclo[3.2.1]octane-3-carbonyl)-1,2-benzoxazol-6-yl]-N′-[(pyridin-4-yl)methyl]urea] belongs 190 nM; to `CCCCc1ccccc1-c1nc2ccc(NC(=O)NCc3ccncc3)cn2n1` [Example 11, N-[2-(2-Butylphenyl)[1,2,4]triazolo[1,5-a]pyridin-6-yl]-N′-[(pyridin-4-yl)methyl]urea], 20 nM; to `Cc1c(-c2ccccc2)nn2cc(NC(=O)NCc3ccncc3)ccc12` [Example 25, N-(3-Methyl-2-phenylpyrazolo[1,5-a]pyridin-6-yl)-N′-[(pyridin-4-yl)methyl]urea], 70 nM.
`O=C(NCc1cnco1)Nc1ccc2nc(-c3ccccc3)oc2c1` [Example 5, N-[(1,3-Oxazol-5-yl)methyl]-N′-(2-phenyl-1,3-benzoxazol-6-yl)urea] registered an EC50 of 110 nM.
To `N#Cc1c(-c2ccccc2)nn2cc(NC(=O)NCc3ccncc3)ccc12` [Example 24, N-(3-Cyano-2-phenylpyrazolo[1,5-a]pyridin-6-yl)-N′-[(pyridin-4-yl)methyl]urea] belongs 50 nM; to `O=C(NCc1ccncc1)Nc1ccc2cn(-c3ccccc3)nc2c1` [Example 26, N-(2-Phenyl-2H-indazol-6-yl)-N′-[(pyridin-4-yl)methyl]urea], 40 nM; to `O=C(NCc1ccncc1)Nc1ccc2c(c1)cc(-c1ccccc1)n2CC1COCCO1` (centres unmarked) [Example 40, N-{1-[(1,4-Dioxan-2-yl)methyl]-2-phenyl-1H-indol-5-yl}-N′-[(pyridin-4-yl)methyl]urea], 190 nM.
